Values quoted from earlier work as cited in US20070098649A1, “Method and composition for controlling oral pathogens” (priority 2004, published 2007).
Counter-ions that a name gives are not always drawn.

Key:
[1] = tested on: mice; conditions: 15 mg/kg i.p.; cited from earlier work
[2] = tested on: albino rats; conditions: i.p. 50 mg/kg; cited from earlier work
[3] = tested on: rats; conditions: single intraintestinal injection 10 mg/kg into the duodenum; cited from earlier work
[4] = tested on: rats; conditions: intravenous 0.1-6.0 mg/kg; cited from earlier work
[5] = tested on: dogs; conditions: intravenous 0.1-6.0 mg/kg; cited from earlier work
[6] = tested on: cats; conditions: intravenous 0.1-6.0 mg/kg; cited from earlier work
[7] = tested on: S. pyogenes; conditions: at sub-MIC levels; cited from earlier work
[8] = tested on: dogs; conditions: dog, in vivo; cited from earlier work

## COc1ccc2cc3[n+](cc2c1OC)CCc1cc2c(cc1-3)OCO2 [berberine sulfate]
[1]
  Protection from amphetamine toxicity: no significant effect
[2]
  Effect on rectal temperature: reduced rectal temperature
[3]
  Effect on the volume or acidity: no effect
[4]
  Effect on blood pressure: reduced the blood pressure
[5]
  Effect on blood pressure: reduced the blood pressure
[6]
  Effect on blood pressure: reduced the blood pressure
[7]
  Adherence of S. pyogenes to epithelial cells: inhibited the adherence
[8]
  Number of apomorphine-induced vomits: significantly increased
